The conditions of data set [1]: literature statement; cited from earlier work.
For the next data set, the system named is mammary carcinoma. The conditions noted are these: intraperitoneal administration, murine mammary carcinoma (Nakajima et al., 2007); cited from earlier work.
Data set [2] concerns human osteosarcoma cells (U2OS). To be noted: proteome analysis (Kang et al. 2006); cited from earlier work.
Another data set relates to splicing factor hnRNP L. The conditions noted are these: U2OS cells, most up-regulated protein (Kang et al. 2006); cited from earlier work.
Data set [3] relates to Smooth mutant Drosophila flies (sm homozygotes, that develop muscle dystrophy). Description: Survival of adult smooth mutant Drosophila flies treated with ascochlorin (FIG. 1). Format: in vivo. The conditions noted are these: adult sm homozygote flies on paper discs, 1 mM solution in 9% sucrose, 10% ethanol, throughout lifespan, vs vehicle alone. The procedure:
Smooth mutant Drosophila flies (sm homozygotes, that develop muscle dystrophy) were maintained on paper discs soaked either with ascochlorin (Santa Cruz Biotechnology, 1 mM solution in 9% sucrose, 10% ethanol), or with vehicle alone. The treatment was maintained throughout the lifespan of the organism. Unaffected control siblings (sm heterozygotes) were maintained on vehicle. The number of dead flies was recorded daily, and percent survival was plotted as a function of time in days.

The subject of a further data set is BIN1. The conditions noted are these: U2OS cells, third most up-regulated protein (Kang et al. 2006); cited from earlier work.
Data set [4] relates to glucose transporter 1 (GLUT-1). To be noted: Jeong et al. 2011; cited from earlier work.
For data set [5], the system named is vascular endothelial growth factor (VEGF). The conditions noted are these: Jeong et al. 2011; cited from earlier work.

Data on three molecules can be found in patent US9662314B2, “Compounds and methods for the treatment of muscular disease, and related screening methods” (Tufts Medical Center, Inc., priority 2011, dated 2017).

In the case of `C/C(=C\Cc1c(O)c(Cl)c(C)c(C=O)c1O)CC/C=C(\C)[C@@H]1CC(=O)C(C)(C)O1` [ascofuranone], in data set [1], the toxicity result was “non-toxic”.

For the molecule `CC(/C=C/[C@@]1(C)[C@H](C)CCC(=O)[C@@H]1C)=C\Cc1c(O)c(Cl)c(C)c(C=O)c1O` [ascochlorin], in the data set on mammary carcinoma, the cancer growth result is given as “significantly suppressed cancer growth” and the survival entry is “prolonged survival”. Further, the “increase in the levels of three proteins” value in data set [2] was no less than 10 fold. Besides, in the data set on splicing factor hnRNP L, the “hnRNP L up-regulation” value is 12 ×. Further, the toxicity entry in data set [1] is “non-toxic”. In data set [3], the survival time result is recorded as “prolonged survival time”. Also, in the data set on BIN1, the BIN1 up-regulation is 10 ×.

For `COc1c(Cl)c(C)c(C=O)c(O)c1C/C=C(C)/C=C/[C@@]1(C)[C@H](C)CCC(=O)[C@@H]1C` [MAC, 4-O-methylascochlorin], in data set [4], the “expression of GLUT-1” value is “increases the expression”. Also, the “expression of VEGF” value in data set [5] is “increases the expression”.
